Reference: publication PMC3195871 (Biochemical and biophysical research communications, 2011)

Target: T1, ArathEULS3 (Arabidopsis thaliana, UniProt Q945P1)
T1 sequence (Q945P1 2-317): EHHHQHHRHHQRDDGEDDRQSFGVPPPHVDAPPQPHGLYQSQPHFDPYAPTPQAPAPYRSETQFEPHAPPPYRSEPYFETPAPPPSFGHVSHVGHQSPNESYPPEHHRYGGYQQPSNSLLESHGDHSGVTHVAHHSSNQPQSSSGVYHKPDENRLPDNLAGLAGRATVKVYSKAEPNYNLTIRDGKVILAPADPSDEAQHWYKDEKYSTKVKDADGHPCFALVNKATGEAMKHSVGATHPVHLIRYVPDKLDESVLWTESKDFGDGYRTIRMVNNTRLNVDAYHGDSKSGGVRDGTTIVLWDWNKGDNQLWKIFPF
Assay: glycan microarray v4.[…], fluorescence
Assay type: binding
Conditions: glycan immobilised through spacer; relative to glycan with highest signal

**Q.** How did the “%RFU ^* / ArathEUL” value turn out when `CC(=O)N[C@H]1[C@H](OCCOCCOCCOCCOCCOCCN)O[C@H](CO)[C@@H](O[C@@H]2O[C@H](CO)[C@H](O)[C@H](O)[C@H]2O)[C@@H]1O` [Galβ1-4GlcNAcβ-(OCH2CH2)6NH2] was run?
**A.** 15,6%

**Q.** How did the “%RFU ^* / ArathEUL” value turn out when `CC(=O)N[C@H]1[C@H](O[C@H]2[C@@H](O)[C@@H](CO)O[C@@H](O[C@H]3[C@H](O[C@@H]4O[C@@H](C)[C@@H](O)[C@@H](O)[C@@H]4O)[C@@H](NC(C)=O)[C@H](O[C@H]4[C@@H](O)[C@@H](CO)O[C@@H](O[C@H]5[C@H](O[C@@H]6O[C@@H](C)[C@@H](O)[C@@H](O)[C@@H]6O)[C@@H](NC(C)=O)[C@H](OCCN)O[C@@H]5CO)[C@@H]4O)O[C@@H]3CO)[C@@H]2O)O[C@H](CO)[C@@H](O[C@@H]2O[C@H](CO)[C@H](O[C@H]3O[C@H](CO)[C@@H](O)[C@H](O)[C@H]3NC(C)=O)[C@H](O)[C@H]2O)[C@@H]1O` [GlcNAcα1-4Galβ1-4GlcNAcβ1-3Galβ1-4(Fucα1-3)GlcNAcβ1-3Galβ1-4(Fucα1-3)GlcNAcβ-Sp0] was run?
**A.** 37,2%

**Q.** How did the “%RFU ^* / ArathEUL” value turn out when `CC(=O)N[C@H]1[C@H](O[C@H]2[C@@H](O)[C@@H](CO)O[C@H](OCCCN)[C@@H]2NC(C)=O)O[C@H](CO)[C@@H](O)[C@@H]1O` [GlcNAcβ1-3GalNAcα-Sp8] was run?
**A.** 37,0%

**Q.** How did the “%RFU ^* / ArathEUL” value turn out when `CC(=O)N[C@H]1[C@H](OCCN)O[C@H](CO)[C@@H](O[C@@H]2O[C@H](CO)[C@H](O)[C@H](O[C@]3(C(=O)O)C[C@H](O)[C@@H](NC(C)=O)[C@H]([C@H](O)[C@H](O)CO)O3)[C@H]2O)[C@@H]1O[C@@H]1O[C@@H](C)[C@@H](O)[C@@H](O)[C@@H]1O` [Neu5Acα2-3Galβ1-4(Fucα1-3)GlcNAcβ-Sp0] was run?
**A.** 46,6%

**Q.** How did the “%RFU ^* / ArathEUL” value turn out when “Fucα1-2Galβ1-4(Fucα1-3)GlcNAcβ1-2Manα1-6(Fucα1-2Galβ1-4(Fucα1-3)GlcNAcβ1-2Manα1-3)Manβ1-4GlcNAcβ1-4(Fucα1-6)GlcNAcβ-6AA” was run?
**A.** 18,9%

**Q.** Which “%RFU ^* / ArathEUL” value does the source give for “Fucα1-2Galβ1-4(Fucα1-3)GlcNAcβ1-3GalNAcα-Sp14” here?
**A.** 100,0%

**Q.** With “GalNAcα1-3(Fucα1-2)Galβ1-4(Fucα1-3)GlcNAcβ1-3GalNAc-Sp14” as the compound, how does the “%RFU ^* / ArathEUL” value read?
**A.** 73,6%

**Q.** How did the “%RFU ^* / ArathEUL” value turn out when “Galα1-3Galβ1-3GlcNAcβ1-2Manα1-3(Galα1-3Galβ1-3GlcNAcβ1-2Manα1-6)Manβ1-4GlcNAcβ1-4GlcNAc-Sp19” was run?
**A.** 46,6%

**Q.** Which “%RFU ^* / ArathEUL” value does the source give for “Galβ1-4(Fucα1-3)GlcNAcβ1-4Galβ1-4(Fucα1-3)GlcNAcβ1-4Galβ1-4(Fucα1-3)GlcNAcβ-Sp0” here?
**A.** 22,7%

**Q.** With Galβ1-4(Fucα1-3)GlcNAcβ1-6GalNAc-Sp14 as the compound, how does the “%RFU ^* / ArathEUL” value read?
**A.** 8,4%

**Q.** Which “%RFU ^* / ArathEUL” value does the source give for “Galβ1-4GlcNAcβ1-2Manα1-3(Galβ1-4GlcNAcβ1-2Manα1-6)Manβ1-4GlcNAcβ1-4GlcNAcβ-Sp12” here?
**A.** 9,1%

**Q.** Which “%RFU ^* / ArathEUL” value does the source give for “Galβ1-4GlcNAcβ1-4(Galβ1-4GlcNAcβ1-2)Manα1-3(GlcNAcβ1-4)(Galβ1-4GlcNAcβ1-6(Galβ1-4-GlcNAcβ1-2)Manα1-6)Manβ1-4GlcNAcβ1-4GlcNAc-Sp21” here?
**A.** 67,5%

**Q.** With “Neu5Acα2-3-Galβ1-3(Galβ1-4(Fucα1-3)GlcNAcβ1-6)GalNAc-Sp14” as the compound, how does the “%RFU ^* / ArathEUL” value read?
**A.** 14,8%
